From US7893286B2, “Method for the synthesis of phospholipid ethers” (Cellectar, Inc., priority 2007, dated 2011)

System: A549 human non-small cell lung cancer xenografts
Experiment: Antitumor effect of single-dose ^125I-NM404 on tumor volume in SCID mice bearing A549 xenografts
Assay type: in vivo
Conditions: for effect on tumor volume compared to control animals: up to 10 weeks post-injection
Text: FIG. 2, illustrates antitumor effect of single-dose treatment with ^125I-125-NM404 at doses of 50 (⊚), 150 (□), 250 (⋄) and 500 (∘) μCi in SCID mice bearing A549 human non-small cell lung cancer xenografts. In this figure, control animals show rapidly growing tumors over the 10-week assessment period.
FIG. 2 summarizes investigations into the efficacy of ^125I-NM404 treatment. These investigations provided assessments of tumor volume were made until 10 weeks post-injection or until no animal in the control group is alive, whatever came first. Summarizing the results, control animals show rapidly growing tumors over the 10-week assessment period. […] Tumor volumes are stable and same tumors appear “collapsed” (the tumor surface has caved in). Additionally, FIG. 3 illustrates that hair above the tumors fell off confirming substantial accumulation of radioactivity in these tumors.

SMILES: C[N+](C)(C)CCOP(=O)([O-])OCCCCCCCCCCCCCCCCCCc1ccc([125I])cc1 [^125I-NM404]
- effect on the tumor (appearance) (250 μCi, 4 weeks following injection): causes central necrosis
- dose dependence of effect on tumor volume (doses 50-500 μCi): dose-linear effect
- tumor therapy efficacy (following single injection and fractionated dosing): effective tumor therapy treatment
- effect on tumor volume compared to control animals (single dose 50 μCi): did not show any difference
- effect on tumor volume compared to control animals (single dose 250 μCi): substantial and prolonged treatment effect
- effect on tumor volume compared to control animals (single dose 500 μCi): substantial and prolonged treatment effect
